Data taken from PubChem BioAssay AID248 (DTP/NCI, 2004).
Inconclusive results and toxic doses are left out.

System: L1210 leukemia ip in BDF1 mice, survival T/C
Experiment: NCI In Vivo Anticancer Drug Screen. Data for tumor model L1210 Leukemia (intraperitoneal) in B6D2F1 (BDF1) mice
Settings: endpoint: mean survival time, higher = longer survival
Method in brief: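 Each compound was tested against a transplantable tumor grown in mice. The endpoint was survival, with treated animals benchmarked against vehicle controls as a simple ratio.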

[1] = dose: 6.25 mg/kg/injection, schedule: Q01DX009 (ip), vehicle: Klucel (hydroxypropylcellulose) (HPC)
[2] = dose: 100.0 mg/kg/injection, schedule: Q01DX009 (ip), vehicle: Klucel (hydroxypropylcellulose) (HPC)
[3] = dose: 100.0 mg/kg/injection, schedule: Q04DX003 (ip), vehicle: Klucel (hydroxypropylcellulose) (HPC)
[4] = dose: 200.0 mg/kg/injection, schedule: Q04DX003 (ip), vehicle: Klucel (hydroxypropylcellulose) (HPC)
[5] = dose: 400.0 mg/kg/injection, schedule: Q04DX003 (ip), vehicle: Klucel (hydroxypropylcellulose) (HPC)
[6] = dose: 100.0 mg/kg/injection, schedule: Q01DX001 (ip), vehicle: saline
[7] = dose: 200.0 mg/kg/injection, schedule: Q01DX001 (ip), vehicle: saline
[8] = dose: 400.0 mg/kg/injection, schedule: Q01DX001 (ip), vehicle: saline

SMILES: CC(NC(=O)NCCCl)c1ccco1 (stereo not given)
- T/C [1]: 104 % of control
- T/C (dose: 12.5 mg/kg/injection, schedule: Q01DX009 (ip), vehicle: Klucel (hydroxypropylcellulose) (HPC)): 98 % of control
- T/C (dose: 25.0 mg/kg/injection, schedule: Q01DX009 (ip), vehicle: Klucel (hydroxypropylcellulose) (HPC)): 109 % of control
- T/C (dose: 50.0 mg/kg/injection, schedule: Q01DX009 (ip), vehicle: Klucel (hydroxypropylcellulose) (HPC)): 114 % of control
- T/C [2]: 106 % of control
- T/C [3]: 101 % of control
- T/C [4]: 93 % of control

SMILES: COc1ccc(/C(=N\O)C(C)=O)cc1OC
- T/C (dose: 100.0 mg/kg/injection, schedule: Q04DX002 (ip), vehicle: Klucel (hydroxypropylcellulose) (HPC)): 103 % of control
- T/C (dose: 200.0 mg/kg/injection, schedule: Q04DX002 (ip), vehicle: Klucel (hydroxypropylcellulose) (HPC)): 103 % of control
- T/C (dose: 400.0 mg/kg/injection, schedule: Q04DX002 (ip), vehicle: Klucel (hydroxypropylcellulose) (HPC)): 91 % of control

SMILES: NC(N)=NN=C(CO)CO
- T/C (dose: 1.0 mg/kg/injection, schedule: Q01DX Z (ip), vehicle: methylcellulose (MC)): 103 % of control
- T/C (dose: 2.0 mg/kg/injection, schedule: Q01DX Z (ip), vehicle: methylcellulose (MC)): 111 % of control
- T/C (dose: 4.0 mg/kg/injection, schedule: Q01DX Z (ip), vehicle: methylcellulose (MC)): 109 % of control
- T/C (dose: 8.0 mg/kg/injection, schedule: Q01DX Z (ip), vehicle: methylcellulose (MC)): 117 % of control
- T/C (dose: 15.0 mg/kg/injection, schedule: Q01DX Z (oral), vehicle: methylcellulose (MC)): 89 % of control
- T/C (dose: 30.0 mg/kg/injection, schedule: Q01DX Z (ip), vehicle: methylcellulose (MC)): 172 % of control
- T/C (dose: 30.0 mg/kg/injection, schedule: Q01DX Z (ip), vehicle: saline): 110 % of control
- T/C (dose: 30.0 mg/kg/injection, schedule: Q01DX Z (oral), vehicle: methylcellulose (MC)): 102 % of control
- T/C (dose: 60.0 mg/kg/injection, schedule: Q01DX Z (ip), vehicle: saline): 108 % of control
- T/C (dose: 60.0 mg/kg/injection, schedule: Q01DX Z (oral), vehicle: methylcellulose (MC)): 93 % of control
- T/C (dose: 120.0 mg/kg/injection, schedule: Q01DX Z (ip), vehicle: saline): 103 % of control
- T/C (dose: 120.0 mg/kg/injection, schedule: Q01DX Z (oral), vehicle: methylcellulose (MC)): 100 % of control
- T/C (dose: 120.0 mg/kg/injection, schedule: Q01DX Z (oral), vehicle: saline): 100 % of control
- T/C (dose: 240.0 mg/kg/injection, schedule: Q01DX Z (oral), vehicle: saline): 100 % of control
- T/C (dose: 480.0 mg/kg/injection, schedule: Q01DX Z (oral), vehicle: saline): 101 % of control
- T/C (dose: 960.0 mg/kg/injection, schedule: Q01DX Z (oral), vehicle: saline): 101 % of control

SMILES: Cc1cc2c3ccccc3ncn2n1
- T/C [3]: 101 % of control
- T/C [4]: 103 % of control
- T/C [5]: 109 % of control

SMILES: Cc1ccc(NC(N)=S)cc1
- T/C (dose: 25.0 mg/kg/injection, schedule: Q04DX003 (ip), vehicle: Klucel (hydroxypropylcellulose) (HPC)): 107 % of control
- T/C (dose: 50.0 mg/kg/injection, schedule: Q04DX003 (ip), vehicle: Klucel (hydroxypropylcellulose) (HPC)): 98 % of control
- T/C [3]: 101 % of control

SMILES: Clc1ccc(N2CCN(c3ccc(Cl)cc3)CC2)cc1
- T/C [3]: 88 % of control
- T/C [4]: 101 % of control
- T/C [5]: 87 % of control

SMILES: O=C(CCCC(=O)N/N=C/c1cc(Cl)cc(Cl)c1O)N/N=C\c1cc(Cl)cc(Cl)c1O
- T/C (dose: 50.0 mg/kg/injection, schedule: Q01DX001 (ip), vehicle: saline): 100 % of control
- T/C [6]: 97 % of control
- T/C [7]: 100 % of control
- T/C [8]: 97 % of control

SMILES: CCCCCCCCCCCCCCCCCC[N+](C)=C1SCCS1
- T/C (dose: 1.56 mg/kg/injection, schedule: Q01DX009 (ip), vehicle: Klucel (hydroxypropylcellulose) (HPC)): 94 % of control
- T/C (dose: 3.13 mg/kg/injection, schedule: Q01DX009 (ip), vehicle: Klucel (hydroxypropylcellulose) (HPC)): 105 % of control
- T/C [1]: 105 % of control

SMILES: CC1=N/C(=N\c2nc3cc(C)c(C)cc3[nH]2)NC(=O)CC1
- T/C (dose: 75.0 mg/kg/injection, schedule: Q01DX001 (ip), vehicle: saline): 104 % of control

SMILES: C=C(C)C1C=CC(O)=C2C(=O)CCC(C)C21C (stereo not given)
- T/C (dose: 25.0 mg/kg/injection, schedule: Q04DX003 (ip), vehicle: saline): 100 % of control
- T/C (dose: 50.0 mg/kg/injection, schedule: Q04DX003 (ip), vehicle: saline): 100 % of control
- T/C (dose: 100.0 mg/kg/injection, schedule: Q04DX003 (ip), vehicle: saline): 100 % of control

SMILES: O=c1c2ccccc2ccc2ccccc12
- T/C (dose: 100.0 mg/kg/injection, schedule: Q01DX001 (ip), vehicle: Klucel (hydroxypropylcellulose) (HPC)): 103 % of control
- T/C [2]: 97 % of control
- T/C [3]: 100 % of control
- T/C (dose: 200.0 mg/kg/injection, schedule: Q01DX001 (ip), vehicle: Klucel (hydroxypropylcellulose) (HPC)): 93 % of control
- T/C (dose: 200.0 mg/kg/injection, schedule: Q01DX009 (ip), vehicle: Klucel (hydroxypropylcellulose) (HPC)): 102 % of control
- T/C [4]: 103 % of control
- T/C (dose: 400.0 mg/kg/injection, schedule: Q01DX001 (ip), vehicle: Klucel (hydroxypropylcellulose) (HPC)): 103 % of control
- T/C (dose: 400.0 mg/kg/injection, schedule: Q01DX009 (ip), vehicle: Klucel (hydroxypropylcellulose) (HPC)): 100 % of control
- T/C [5]: 105 % of control

SMILES: NNC(=O)c1ccccc1NCCO
- T/C [6]: 101 % of control
- T/C [7]: 97 % of control
- T/C [8]: 101 % of control

SMILES: CCN(CC)C1=C(Cl)C(=O)c2ccccc2C1=O
- T/C (dose: 100.0 mg/kg/injection, schedule: Q01DX009 (ip), vehicle: saline with Tween-80): 93 % of control
- T/C (dose: 200.0 mg/kg/injection, schedule: Q01DX009 (ip), vehicle: saline with Tween-80): 93 % of control
